Laboratory results: publication PMC10059905, “The Bioactivity of Xylene, Pyridine, and Pyrazole Aza Macrocycles against Three Representative Leishmania Species” (Pharmaceutics, 2023)

Legend:
[1] = tested on: L. braziliensis promastigote forms; test: In vitro activity against promastigote forms; format: cell-based
Protocol: (§1) Three Leishmania species were studied, each one as a pathogenic agent for each clinical form: L. donovani for VL, L. infantum for CL, and L. braziliensis for ML.
(§2) In order to perform this experiment, promastigotes were harvested in 24-well microplates and different drug concentrations were added in order to reach 12.5, 25, 50, and 100 µM and maintained at 27 °C for 48 h. They were counted after that time was elapsed in a Neubauer haemocytrometric chamber.

[2] = tested on: L. donovani promastigote forms; test: In vitro activity against promastigote forms; format: cell-based
Protocol: as §1, §2

[3] = tested on: L. infantum promastigote forms; test: In vitro activity against promastigote forms; format: cell-based
Protocol: as §1, §2

[4] = tested on: L. infantum amastigote forms; test: In vitro activity against amastigote forms in J774.2 macrophages; format: cell-based
Protocol: A similar method was used for the amastigote assay. First, J774.2 macrophages were harvested in 24-well microplates with round coverslips at the bottom, where cells will attach. Once cells are fixated, they are infected with promastigotes (10 per each macrophage cell) and compounds were added to reach the same final concentrations as in the previous experiment. After one day, promastigotes transform into amastigotes and microplates are maintained for two days at 37 °C. Once that time is elapsed, coverslips are collected and fixated to a microscope slide and dyed with Giemsa. Amastigotes are then counted using a microscope from a total of 200 random macrophages.

[5] = tested on: J774.2 macrophage cell line; test: Macrophage cytotoxicity; format: cell-based; settings: Mus musculus; J774.2 macrophages; means of three separate experiments; read-out: Macrophage Toxicity IC50
Excerpt: Macrophages are cells naturally infected by Leishmania parasites. For that reason, they were used as host cell models, specifically the J774.2 macrophage cell line [European Collection of Authenticated Cell Cultures (ECACC) number 91051511]. Cells were used to test the cytotoxicity of the new compound (establishing IC50 via testing different drug concentrations on cells) and they were used for parasite infectivity assays.

[6] = tested on: L. infantum Fe-SOD; test: SOD inhibition assay (Beyer and Fridovich method); format: biochemical; settings: L. infantum excreted Fe-SOD
Excerpt: Superoxide dismutase (SOD) is a key enzyme for cell survival against oxidative stress. Host cells induce oxidative bursts to create reactive oxygen species (ROS) within parasite cells that are toxic to them. For that reason, Leishmania cells rely on SOD to counteract this defense. While vertebrate SOD is linked to a copper, zinc (Cu/Zn-SOD), or manganese atom (Mn-SOD), trypanosomatid SOD is linked to an iron atom (Fe-SOD). This difference makes SOD a perfect target for drugs: if they are able to reduce its activity, cell survival will be compromised. For testing, if drugs are able to reduce this enzymatic activity, promastigotes are largely harvested and then stressed in the same culture medium without calf serum, in order to trigger stress and make them excrete SOD. This SOD is collected and semi-purified by a method described in Martín-Montes et al. 2017 [10]. Excreted Fe-SOD was mixed with the different reagents of the Beyer and Fridovich method and measured in a UV spectrophotometer twice. The second measurement took place after 10 min under direct light and constant stirring. Commercial human SOD (Cu/Zn-SOD) (Sigma®, St. Louis, MO, USA) activity was also measured for comparison.

[7] = tested on: L. infantum; test: Metabolite excretion (1H-NMR of supernatants); format: cell-based; settings: IC25, 72 h, vs untreated
Excerpt: Active compounds can trigger metabolic alterations within parasite mitochondria. Those alterations can be proven by observing alterations in the excreted metabolites quantity. Trypanosomatids excrete different metabolites to the medium in order to get rid of the carbonate skeleton instead of oxidizing glucose to CO2 and water as vertebrates do. Each metabolite is produced in a certain area of the mitochondrion and by a certain enzyme, thus, it can be inferred that these particular zones or enzymes are being affected by drug action. For this experiment, cultures of each species with an initial concentration of 5 × 10^5 cells/mL were stored at 27 °C for 72 h with IC25 as the test dosage. After this time elapsed, cultures were centrifuged at 400× g for 10 min and supernatants were collected and examined by ^1H-NMR.

[8] = J774.2 Macrophage IC50/Parasite IC50

Compound: c1cc2nc(c1)CNCCCNCCCNCCCNCCCNCCCNC2 [Py33333]
- Selectivity Index Promastigote Forms [1, 8]: 41
- IC50 ([1]; Leishmania braziliensis, 48 h, 27 °C, means of three separate experiments, read-out: Compound IC50 Promastigote Forms): 36.5 ± 1.1 µM
- Selectivity Index Promastigote Forms [2, 8]: 21
- IC50 ([2]; Leishmania donovani, 48 h, 27 °C, means of three separated experiments, read-out: Compound IC50 Promastigote Forms): 70.5 ± 5.2 µM
- Selectivity Index Promastigote Forms [3, 8]: 176
- IC50 ([3]; Leishmania infantum, 48 h, 27 °C, means of three separate experiments, read-out: Compound IC50 Promastigote Forms): 8.51 ± 0.6 µM
- Selectivity Index Amastigote Forms [4, 8]: 882
- IC50 ([4]; Leishmania infantum, in J774.2 macrophages, means of three separate experiments, read-out: Compound IC50 Amastigote Forms): 1.7 ± 0.2 µM
- IC50 [5]: 1500 ± 75.3 µM
- Fe-SOD activity inhibition (in words) [6]: no inhibition
- Acetate production and excretion variation [7]: -20.61%
- D-lactate production and excretion variation [7]: -19.58%
- L-alanine production and excretion variation [7]: -19.83%
- Pyruvate production and excretion variation [7]: -22.89%
- Succinate production and excretion variation [7]: -20.30%
